The record followed here is patent EP0768085A1, “ANTIBACTERIAL AGENT” (DAIICHI PHARMACEUTICAL CO., LTD., priority 1994, dated 1996).

Each structure is given as a SMILES string. Converted amounts (≈) assume the structure as drawn. Where two headings read alike, the source gives them in different places.

Series [1] is described as follows: in vivo. The settings on record: mouse, oral administration, single dose, suspended in aqueous 0.5% CMC solution, male mice, observed for 14 days. As for the experimental part:
Acute toxicity (LD50) of a ketonitrile derivative of the present invention (Compound No. 4) was tested using male mice (Slc:ddY, 5 weeks old). To groups of each 5 mice, the compounds suspended in aqueous 0.5% CMC solution were forcibly dosed orally at a single time so that the final dosages of 707, 1,000, 1,414, and 2,000 mg/kg were attained. […] As a result, LD50 value under conditions of oral administration was estimated to be higher than 2,000 mg/kg. Thus, the compound was confirmed to be quite non-toxic.
To groups of each 5 mice, the compounds suspended in aqueous 0.5% CMC solution were forcibly dosed orally at a single time so that the final dosages of 500, 1,000, 1,500, and 2,000 mg/kg were attained. […] As a result, the LD50 value was estimated to be higher than 2,000 mg/kg. Thus, the compounds were confirmed to be quite non-toxic.

Series [2] deals with Staphylococcus aureus 209-P. Nature of the series: Antibacterial activity (IC), Mueller-Hinton broth, 96-well microplate (Example 4, Table 39). Type of series: cell-based. The settings on record: 37°C, 18 hours. In short, it runs like this:
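S. aureus 209-P at 10^6 CFU/ml in Mueller-Hinton broth, compound (DMSO/water) at final 100, 10 and 1 µg/ml, 18 h at 37°C. Growth inhibition scored by turbidity; IC reported as ≤100, ≤10 or ≤1 µg/ml bands.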

For series [3], the system named is Staphylococcus aureus TI-1. Kind of series: Antibacterial activity (IC), broth microplate as in Example 4 (Example 5, Table 40). Format: cell-based. The settings on record: TI1, 18 h. The method in brief: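 S. aureus TI-1 at 10^6 CFU/ml in Mueller-Hinton broth exposed to compound at final 100, 10 and 1 µg/ml (DMSO/water stock), 37 °C for 18 h. Growth inhibition judged by turbidity; IC reported as ≤100, ≤10 or ≤1 µg/ml bands.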

Series [4] has as its system Pasteurella multocida (Kobe-6). Kind of series: Antibacterial activity (IC), broth microplate as in Example 4 (Example 6, Table 41). The settings on record: 18 h, origin pig. Type of series: cell-based. As for the experimental part: A suitable amount of a sample was dissolved in dimethylsulfoxide (DMSO), and the resultant solution was diluted with the same amount of sterilized distilled water to prepare a bulk sample of 1,000 µg/ml. Mueller-Hinton broth (product of DIFCO) was dispensed into each well of 96-well microplate. Thereafter, the bulk specimen was added to the first well of a row, and successively diluted (10-fold each time) with sterilized distilled water. Separately, a bacterial cell suspension for the test (Staphylococcus aureus 209-P) which had been cultured in the above-mentioned broth overnight at 37°C was inoculated to each well so that the final inoculation amount of 10^6 CFU/ml was attained. The final concentrations of the samples were 100, 10, and 1 µg/ml.
The antibacterial action was evaluated by the inhibitory concentration (hereinafter abbreviated as IC) at which propagation of the bacteria cultured at 37°C for 18 hours was inhibited. Inhibition was determined by the turbidity of the medium. The expressions "IC≤100", "≤10", and "≤1" indicate that MIC-equivalent values obtained at the succesive […] dilution of the sample are 100-10 µg/ml, 10-1 µg/ml, and not more than 1 µg/ml, respectively. […] (In the subsequent Examples, the same rule applies correspondingly.) Table 39
In a manner similar to that described in Example 4, antibacterial activity of the invention compound was determined. The bacterium used for the test was Pasteurella Kobe-6 (origin: pig; Pasteurella multocida).

Series [5] relates to Pasteurella from cattle. Kind of series: MIC by agar plate dilution method (Example 9, Table 44). The settings on record: 18 h. Format: cell-based. How it is done: (§1) Through use of a ketonitrile derivative of the present invention (Compound No. 4) as a sample, minimum inhibitory concentrations (MIC) of Staphylococcus aureus and Pasteurella from cattle were determined by an agar plate dilution method in accordance with the standard procedure authorized by Japan Chemotherapy Association ["Chemotherapy", 29, 76-79, 1981, under the heading "Revised Measurement of Minimum Inhibitory Concentration (MIC)"]. The samples were dissolved in dimethylsulfoxide and diluted with the same amount of sterilized distilled water to prepare a bulk sample liquid of 1,000 µg/ml. The bulk was diluted into a series of 2-fold dilutions using sterilized distilled water.
(§2) Separately, the bacterial cell suspensions for the test shown in Table 18 were cultured in Mueller-Hinton broth (DIFCO) at 37°C for 18-20 hours in advance. They were controlled to have a bacterial amount of 10^6 CFU/ml by use of Mueller-Hinton broth. The thus-controlled liquids were inoculated to a Muller-Hinton agar plate containing the sample, followed by culturing at 37°C for 18 hours. The concentration at which bacterial growth was no longer observed was taken as the MIC.

Series [6] has as its system Staphylococcus aureus. Described as above. The settings on record: 18 h. Format: cell-based. How it is done: as §1, §2
For series [7], the system named is various bacterial strains. Kind of series: MIC by microliquid dilution method (Example 10, Table 45). Format: cell-based. As for the experimental part:
Through use of a ketonitrile derivative of the present invention (Compound No. 4) as a sample, minimum inhibitory concentrations (MIC) of respective bacterial strains were determined by a microliquid dilution method in accordance with the standard procedure authorized by Japan Chemotherapy Association ["Chemotherapy", 29, 76-79, 1981, under the heading "Revised Measurement of Minimum Inhibitory Concentration (MIC)"]. The samples were dissolved in dimethylsulfoxide and diluted with the same amount of sterilized distilled water to prepare a bulk sample liquid of 1,000 µg/ml. The bulk sample was cultured in Mueller-Hinton broth at 37°C for 18 hours.

Consider `CC(Oc1ccc(Oc2ncc(C(F)(F)F)cc2Cl)cc1)C(=O)C(C#N)c1ccc(Cl)c(Cl)c1` (stereo not drawn) [Compound No. 4, 4-[4-(3-chloro-5-trifluoromethyl-2-pyridyloxy)phenoxy]-2-(3,4-dichlorophenyl)-3-oxopentanonitrile], for which the LD50 (usually the dose expected to kill half of the subjects tested) at 336 h in series [1] is greater than 2000 mg/kg. Further, the MIC (usually the lowest concentration that inhibits growth of the organism) in series [2] is no more than 1 µg/mL; in series [3] it was no more than 1 µg/mL; in series [4] it was 10 to 100 µg/mL (≈ 18.9 to 189 µM); in series [5] (Pasteurella Multosida 1F-17, origin Cattle), 1.56 µg/mL (≈ 2.94 µM); in series [5] (Pasteurella haemolytica 1F-15, origin Cattle), 6.25 µg/mL (≈ 11.8 µM); in series [6] (209P, Staphylococcus aureus 209P, origin Standard strain), 1.56 µg/mL (≈ 2.94 µM). The MIC was 3.13 µg/mL (≈ 5.91 µM) in series [6] (Staphylococcus aureus 1SS1, origin Chicken); 3.13 µg/mL (≈ 5.91 µM) in series [6] (Staphylococcus aureus 3-2, origin Pig); 6.25 µg/mL (≈ 11.8 µM) in series [6] (Staphylococcus aureus TI-1, origin Cattle); 3.13 µg/mL (≈ 5.91 µM) in series [7] (18 h, Staphylococcus aureus SMITH, read-out: MIC); 6.25 µg/mL (≈ 11.8 µM) in series [7] (18 h, Staphylococcus epidermis 56556, read-out: MIC); 12.5 µg/mL (≈ 23.6 µM) in series [7] (18 h, Streptococcus mitis 11D 685, read-out: MIC). The MIC in series [7] (18 h, Streptococcus pyogenes G-36, read-out: MIC) is 6.25 µg/mL (≈ 11.8 µM); in series [7] (ATCC6633, 18 h, Bacillus subtilis ATCC 6633, read-out: MIC) it was 3.13 µg/mL (≈ 5.91 µM); in series [7] (ATCC19433, 18 h, Enterococcus faecalis ATCC 19433, read-out: MIC), 6.25 µg/mL (≈ 11.8 µM); in series [7] (Staphylococcus aureus M5-1 (Methicillin-resistant Staphylococcus aureus)) it was 3.13 µg/mL (≈ 5.91 µM); in series [7] (Staphylococcus aureus M5-2 (Methicillin-resistant Staphylococcus aureus)), 3.13 µg/mL (≈ 5.91 µM).
